According to patent publication US6956059B2, “Anti-inflammatory and immunomodulatory amino acid derivatives, their preparation and use” (Croda International, plc, priority 2001, dated 2005):

System: blood-brain barrier
Experiment: transport across the blood-brain barrier (methodology of Dehouck et al); cytotoxicity observation
Type: cell-based
Conditions: used at the concentration of 5 μm/l; blood-brain barrier transport experiments
Procedure: In accordance with the methodology described by Dehouck et al in J Cont Rel 81-91 (1992), experiments were performed to study the transport of the compound of Example 2 across the blood-brain barrier.

CCCCCCCC/C=C\CCCCCCCCCCCCCC(=O)NCCCC[C@H](NC(=O)CCCCCCCCCCCCC/C=C\CCCCCCCC)C(=O)OCC [Example 2, Nα,Nε-di-(z-15-tetracosenoyl)-L-lysine ethyl ester]
cytotoxicity: not cytotoxic
